In patent publication US11425924B2, “Composition and method for controlled-release of amino acids” (Glanbia Nutritionals, Ltd., priority 2018, dated 2022):
Values after ≈ are worked out from the molar mass of the structure shown.

Columns and labels:
[1] = except at very acidic pH; cited from earlier work
[2] = Zeta potential measurements; assay type: physicochemical; details: uncoated
Procedure: Zeta potential analysis was performed in on a NanoBrook ZetaPlus Zeta Plus instrument from Brookhaven Instruments.

surface charge [2]: positive charge
SMILES: CC(C)C[C@H](N)C(=O)O [Leucine (L-Leucine), L-Leucine]
solubility in water [1]: 24.3 mg/mL (≈ 185 mM)
